The target in test [1] is T1, GPR81 (Homo sapiens, UniProt Q9BXC0).
T1 construct: expressed in transfected cells; host or cells: CHO-K1 (ATCC CCL-61), recombinant, stably transfected
Briefly: HTRF assay for direct cAMP measurement. Type of test: cell-based. To be noted: CHO-K1 cells stably transfected with GPR81, forskolin-stimulated cAMP. From the text: Compounds were screened for agonists of GPR81 (e.g., human GPR81) using an HTRF® assay for direct cAMP measurement (Gabriel et al, ASSAY and Drug Development Technologies, 1:291-303, 2003) and recombinant CHO-K1 cells stably transfected with GPR81. CHO-K1 cells were obtained from ATCC® (Manassas, Va.; Catalog #CCL-61). An agonist of GPR81 was detected in the HTRF® assay for direct cAMP measurement as a compound which decreased cAMP concentration. The HTRF® assay also was used to determine EC50 values for GPR81 agonists.
The HTRF® assay kit was purchased from Cisbio-US, Inc. (Bedford, Mass.; Catalog #62AM4PEC). The HTRF® assay supported by the kit is a competitive immunoassay between endogenous cAMP produced by the CHO-K1 cells and tracer cAMP labeled with the dye d2. The tracer binding is visualized by a monoclonal anti-cAMP antibody labeled with Cryptate. The specific signal (i.e., fluorescence resonance energy transfer, FRET) is inversely proportional to the concentration of unlabeled cAMP in the standard or sample.
The fluorescence ratio of the samples (test compound or compound buffer) was calculated and used to deduce respective cAMP concentrations by reference to the cAMP standard curve.
The HTRF® assay was carried out using a two-step protocol essentially according to the kit manufacturer's instructions, in 20 μL total volume per well in 384-well plate format (ProxiPlates; PerkinElmer, Fremont, Calif.; catalog #6008280). To each of the experimental wells was transferred 1000 recombinant CHO-K1 cells in 5 μL phosphate buffered saline containing calcium chloride and magnesium chloride (“PBS+”; Invitrogen, Carlsbad, Calif.; catalog #14040) supplemented with IBMX (100 μM) (phosphodiesterase inhibitors; Sigma-Aldrich, St. Louis, Mo.; catalog #I-5879), followed by test compound in 5 μL compound buffer (PBS+ supplemented with 10 μM forskolin (Sigma-Aldrich, St. Louis, Mo.; catalog #F-6886)). The plate was then incubated at room temperature for 1 hour. To each well was then added 5 μl cAMP-d2 conjugate in lysis buffer and 5 μL Cryptate conjugate in lysis buffer according to the kit manufacturer's instructions. The plate was then further incubated at room temperature for 1 hour, after which the assay plate was read.
HTRF® readout was accomplished using a PHERAstar (BMG LABTECH Inc., Durham, N.C.) or EnVision™ (PerkinElmer, Fremont Calif.) microplate reader.
On the technique in general: TR-FRET usually uses a lanthanide donor and a delayed reading to cut background.

The test system of test [2] is rat epididymal adipocytes. In words: Glycerol assay (rat adipocyte lipolysis). Type of test: cell-based. To be noted: rat epididymal adipocytes in vitro, FIG. 5. The procedure:
Free glycerol was determined using a free glycerol reagent, Reagent A (Sigma). Adipocyte media (10 μL) was removed and replated in a flat-bottom 96-well plate. Reagent A (100 μL) was then added to each well. After 10-15 minutes, abroad sorbance was read at OD540 on a Spectramax 340PC microplate reader (Molecular Devices). The amount of glycerol released was calculated based on regression analysis of known glycerol concentrations using a glycerol standard (Sigma).
Epididymal fat pads were surgically removed from CO2-anesthetized male Sprague Dawley rats, weighing 300-500 g. The adipose tissue was minced and suspended in Krebroad s-Ringer bicarbonate HEPES buffer (containing […], […] (monobasic), […] MgSO4.7H2O, […] CaCl2, 1 mM NaHCO3, 3 mM HEPES, 200 nM adenosine, and 1% BSA) with 2.5 mg of collagenase (Sigma) per gram of tissue. The suspension was incubated in an orbital shaker at 37° C. for 40 minutes with constant agitation. Cells were then filtered through a 500 μm mesh filter. For each filter used, 10 mL of buffer was added to the cell suspension to aid with the filtration. Cells were spun at 1000 rpm for 1 minute. A glass Pasteur pipette was then used to remove all buffer remaining below the floating adipocyte layer. Approximately 30 mL of new buffer was then added to the adipocytes and they were incubated for 5 minutes at 37° C. […]

A further test deals with Male Sprague Dawley rats. In words: NEFA assay, circulating free fatty acids in rats. It counts as in vivo, rat. To be noted: after injection of 100 mpk, FIG. 6. The procedure: (§1) The supplied standard was diluted with DI water to 1, 0.5, 0.25, 0.125, 0.0625, 0.03125. A water blank was also prepared. Serum samples and standards were dispensed (5 μl/well) to wells of a 96-well plate. Reagent A (100 μL) was added to each well and incubated for 10 minutes at 37° C. Reagent B (200 μL) was then added to each well and incubated for another 10 minutes at 37° C. After equilibration for 5 minutes at room temperature (about 25° C.), the abroad sorbance was measured on a plate reader at 550 nm.
Male Sprague Dawley rats (10-12 weeks old) were obtained from Charles River Labroad s pre-cannulated with right jugular catheters for sample collection. Rats were food deprived overnight (by removing food pellets from the cage) for approximately 16 hours with ad libitum access to water. Canulae were flushed with saline to remove heparin and to clear the catheter line 30 minutes prior to the first (basal) sample collection. Basal samples were collected in a staggered dose manner (e.g. vehicle, high dose, low dose, low dose, high dose, and vehicle). Rats were injected per oral (PO), 2 mL/kg with 5% HPBCD (Hydroxypropyl-β-cyclodextrin) or with drug in 5% HPBCD. Blood (500-700 μl) was drawn via catheter at 10, 20, 40, 60, 120, and 240 minutes post dosing, and saline (about 200 μl) was infused into the catheter to ensure patency. […]

The subject of the next test is Male C57/B16 mice. Briefly: NEFA assay, circulating free fatty acids in mice. Particulars: FIG. 7. Type of test: in vivo, mouse. As to the method:
as §1
Male C57/B16 mice (8-10 weeks old; about 23 g) were food deprived (by removing food pellets from the cage) for 5 hours with ad libitum access to water. Animals were then dosed with vehicle (5% HPBCD) or drug via intraperitoneal (IP) injection at the desired concentration in a volume of 10 mL/kg. After 30 minutes, mice were euthanized via CO2 asphyxiation and about 300 μl of blood were immediately collected by cardiac puncture. The blood was transferred to an Eppendorf tube and capped on ice. The blood was then centrifuged on a table top centrifuge (4000 rpm at 4° C. for 10 minutes). Serum was collected in a new microfuge tube and re-centrifuged (4000 rpm at 4° C. for 10 minutes). Serum samples were dispensed (5 μl/well) to wells of a 96-well plate.

Test [3] addresses T1, GPR81. In words: GPR81 [35S]GTPγS binding assay. Type of test: biochemical. To be noted: membranes of CHO-K1 cells stably transfected with GPR81. The procedure:
Compounds were screened for agonism of GPR81 (e.g. human GPR81) using a GTPγS binding assay and CHO-K1 cells stably transfected with GPR81.
GPR81 stably transfected CHO-K1 cells were grown in F-12 Kaighn's Modified Cell Culture Medium with 10% FBS, 2 mM L-glutamine, 1 mM sodium pyruvate and 400 μg/ml G418. For 15 cm^2 plates, cells were rinsed with 5 mL cold PBS and aspirated. Cold membrane scrape buffer (20 mM HEPES, 10 mM EDTA, pH 7.4) was added and cells were scraped off the plate and transferred to a 50 mL centrifuge tube. Cells were spun at 20,000 rpm for 17 minutes at 4° C. The supernatant was aspirated and the pellet was re-suspended in cold membrane wash buffer (30 mL, 20 mM HEPES, 0.1 mM EDTA, pH 7.4). Cells were spun at 20,000 rpm for 17 minutes at 4° C. The supernatant was aspirated away from the membrane pellet. The pellet may be frozen at −80° C. for later use or may be used immediately.
The membrane pellet was thawed (if frozen) on ice and homogenized briefly until in suspension using a polytron mixer (POLYTRON PT3100, probe PT-DA 3007/2 at setting of 7000 rpm). The membrane protein concentration was determined using a Bradford assay. The membrane protein was diluted to a protein concentration of 0.20 mg/mL in binding buffer (20 mM HEPES, pH 7.4, 100 mM NaCl, 10 mM MgCl2) for a final assay concentration of 5 μg/well. Compound plates to be screened were thawed (daughter plates with 5 μL compound@2 mM in 100% DMSO). The 2 mM compounds were diluted 1:50 with 245 μL GDP buffer (binding buffer plus GDP, Sigma-Aldrich Catalog #87127, ranging from 0.4 to 40 μM, made fresh before assay) to 40 μM in 2% DMSO. Compounds in GDP buffer (25 were added per well of a Scintistrip plate (Wallac Catalog #1450-501) and then 50 μL of membrane preparation (0.4 mg protein/mL) was added to each well. The plates were then covered with foil and incubated for 5-10 minutes at room temperature. Subsequently, 25 μL of diluted [^35S]GTPγS (Amersham Biosciences Catalog #SJ1320, about 2000 Ci/mmol (made by adding 5 μL [^35S]GTPγS stock into 10 ml binding buffer) was added to the wells. The plates were covered with foil and incubated on a shaker (Lab-Line model #1314, at setting of 4) for 60 minutes at room temperature. The assay was stopped by sealing the plates with plate covers and spinning the plates at 4000 rpm for 15 minutes at 22° C. The supernatant of each well was apirated using an eight-channel manifold and the plate was read in a Wallac Microbeta counter 1450 set up to detect ^35S.
(GTPγS resists hydrolysis and so accumulates on activated G proteins.)

T1 sequence (Q9BXC0 whole entry): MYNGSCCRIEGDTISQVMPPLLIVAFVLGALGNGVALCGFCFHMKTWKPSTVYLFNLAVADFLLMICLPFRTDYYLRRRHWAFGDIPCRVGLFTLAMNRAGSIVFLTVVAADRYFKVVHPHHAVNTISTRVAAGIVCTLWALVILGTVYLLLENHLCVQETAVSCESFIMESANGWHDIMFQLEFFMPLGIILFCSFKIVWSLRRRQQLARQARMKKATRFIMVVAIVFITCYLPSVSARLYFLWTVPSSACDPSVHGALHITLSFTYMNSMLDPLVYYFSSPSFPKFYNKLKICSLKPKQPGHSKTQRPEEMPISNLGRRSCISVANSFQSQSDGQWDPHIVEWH

`Nc1nc2ccc(O)nc2n1-c1ccccc1` [Compound 9, 2-Amino-3-phenyl-3H-imidazo[4,5-b]pyridin-5-ol] gave an EC50 on GPR81 [1] of 1050 nM.
As for `Oc1ccc2ncn(-c3ccccc3Cl)c2n1` [Compound 25, 3-(2-Chlorophenyl)-3H-imidazo[4,5-b]pyridin-5-ol], the inhibition of lipolysis result in test [2] is “inhibition of lipolysis”. The “circulating free fatty acids” value with Male Sprague Dawley rats and in the test on Male C57/B16 mice was “significant decrease of circulating free fatty acids” each time.
For the molecule `Oc1ccc2ncn(-c3ccccc3C(F)(F)F)c2n1` [Compound 28, 3-(2-(Trifluoromethyl)phenyl)-3H-imidazo[4,5-b]pyridin-5-ol], in the test on Male C57/B16 mice, the “circulating free fatty acids” value is listed as “significant decrease of circulating free fatty acids”.
Take `Oc1ccc2ncn(C3CCCCCC3)c2n1` [Compound 48, 3-Cycloheptyl-3H-imidazo[4,5-b]pyridin-5-ol]: the concentration for a half-maximal effect (EC50) on GPR81 [1] came to 350 nM.
Molecule `Oc1ccc2ncn(-c3cccc(Cl)c3F)c2n1` [Compound 50, 3-(3-Chloro-2-fluorophenyl)-3H-imidazo[4,5-b]pyridin-5-ol] came in with an EC50 on GPR81 [1] of 2760 nM.
Regarding `Oc1ccc2ncn(-c3ccc(Cl)cc3C(F)(F)F)c2n1` [Compound 56, 3-(4-Chloro-2-(trifluoromethyl)phenyl)-3H-imidazo[4,5-b]pyridin-5-ol], the response on GPR81 [3] was half-maximal at 1390 nM (EC50).
For the molecule `Cc1c(F)cccc1-n1c(N)nc2ccc(O)nc21` [Compound 64, 2-Amino-3-(3-Fluoro-2-methylphenyl)-3H-imidazo[4,5-b]pyridin-5-ol], on GPR81 [1], the midpoint of the response, the EC50, lay at 2330 nM.
The molecule `Oc1ccc2ncn(C34CC5CC(CC(C5)C3)C4)c2n1` [Compound 114, 3-(Adamant-1-yl)-3H-imidazo[4,5-b]pyridin-5-ol] registered a concentration giving a half-maximal response (EC50) on GPR81 [3] of 30.3 nM.
At GPR81 [3], `Oc1ccc2nc(Cl)n(C3CCCCC3)c2n1` [Compound 127, 2-Chloro-3-cyclohexyl-3H-imidazo[4,5-b]pyridin-5-ol] gave a concentration giving a half-maximal response (EC50) of 75.3 nM.
In turn, `Oc1ccc2nc(Cl)n(-c3ccccc3C3CC3)c2n1` [Compound 133, 2-Chloro-3-(2-Cyclopropylphenyl)-3H-imidazo[4,5-b]pyridin-5-ol] displayed an EC50 on GPR81 [3] of 81.5 nM.

As usually defined, the EC50 is the concentration needed to bring the measured effect to its halfway point. Low values mean higher potency in that assay, high ones lower potency in that assay.

These data come from patent US8507473B2, “3H-imidazo[4,5-b]pyridin-5-ol derivatives useful in the treatment of GPR81 receptor disorders” (Arena Pharmaceuticals, Inc., priority 2008, dated 2013).
